# Data reported in patent publication US20060223782A1, “2-Methylene-19-nor-(23S)-25-dehydro-1alpha-hydroxyvitamin D3-26,23-lactone and 2-methylene-19-nor-(23R)-25-dehydro-1alpha-hydroxyvitamin D3-26,23-lactone” (Wisconsin Alumni Research Foundation, priority 2005, published 2006).
# Assays:
# [1] = system: HL-60 cells; assay: HL-60 differentiation (nitro blue tetrazolium reduction); type: cell-based, human; conditions: FIG. 2
# Method: The study drugs were dissolved in ethanol and the concentrations determined using UV spectrophotometry. Serial dilutions were prepared so that a range of drug concentrations could be tested without changing the final concentration of ethanol (≦0.2%) present in the cell cultures.
# Human promyelocyiic leukemia (HL60) cells were grown in RPMI-1640 medium containing 10% fetal bovine serum. The cells were incubated at 37° C. in the presence of 5% CO2.
# HL60 cells were plated at 1.2×10^5 cells/mL. Eighteen hours after plating, cells in duplicate were treated with drug. Four days later, the cells were harvested and a nitro blue tetrazolium reduction assay was performed (Collins et al., 1979; J. Exp. Med. 149:969-974). The percentage of differentiated cells was determined by counting a total of 200 cells and recording the number that contained intracellular black-blue formazan deposits. Verification of differentiation to monocytic cells was determined by measuring phagocytic activity (data not shown).
# [2] = system: Sprague-Dawley rats; assay: Bone calcium mobilization (serum calcium); type: in vivo, rat; conditions: four consecutive ip doses, even at 2,340 pmol/day, FIG. 6
# Method: (§1) Male, weanling Sprague-Dawley rats were placed on Diet 11 (Suda et al. J. Nutr. 100:1049, 1970) (0.47% Ca) diet+vitamins AEK for one week followed by Diet 11 (0.02% Ca)+AEK for 3 weeks. The rats were then switched to a diet containing 0.47% Ca for one week followed by two weeks on a diet containing 0.02% Ca. Dose administration began during the last week on 0.02% calcium diet. Four consecutive ip doses were given approximately 24 hours apart. Twenty-four hours after the last dose, blood was collected from the severed neck and the concentration of serum calcium determined as a measure of bone calcium mobilization. The first 10 cm of the intestine was also collected for intestinal calcium transport analysis using the everted gut sac method. Antagonism was tested by administering a combination of 1,25(OH)2D3 and the compound to the animal simultaneously.
# [3] = system: Sprague-Dawley rats; assay: Intestinal calcium transport (everted gut sac method); type: in vivo, rat; conditions: four consecutive ip doses, FIG. 7
# Method: as §1
# [4] = target: T1, full-length recombinant rat vitamin D receptor (Rattus norvegicus, UniProt P13053); assay: Vitamin D receptor competitive binding with [3H]-1,25-(OH)2-D3; conditions: competition with [3H]-1,25-(OH)2-D3; FIG. 1
# T1 construct: Full-length recombinant rat vitamin D receptor was expressed in E. coli; histidine tag (C); made in house; host or cells: E. coli BL21(DE3) Codon Plus RIL
# T1 sequence (P13053 1-423): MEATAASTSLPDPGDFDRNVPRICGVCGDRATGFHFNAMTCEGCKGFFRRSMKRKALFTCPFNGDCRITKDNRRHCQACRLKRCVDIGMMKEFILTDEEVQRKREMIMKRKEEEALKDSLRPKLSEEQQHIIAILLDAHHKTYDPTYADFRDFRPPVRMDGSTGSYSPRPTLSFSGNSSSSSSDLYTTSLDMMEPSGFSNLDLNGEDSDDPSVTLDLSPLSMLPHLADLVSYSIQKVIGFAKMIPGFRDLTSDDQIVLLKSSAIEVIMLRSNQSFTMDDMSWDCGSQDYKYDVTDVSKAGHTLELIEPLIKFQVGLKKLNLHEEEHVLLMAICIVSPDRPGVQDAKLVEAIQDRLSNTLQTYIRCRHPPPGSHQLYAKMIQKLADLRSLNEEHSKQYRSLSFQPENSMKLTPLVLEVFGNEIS
# Method: The first system was a nickel affinity resin that utilizes the C-terminal histidine tag on this protein. The protein that was eluted from this resin was further purified using ion exchange chromatography (S-Sepharose Fast Flow). Aliquots of the purified protein were quick frozen in liquid nitrogen and stored at −80° C. until use. For use in binding assays, the protein was diluted in TEDK50 (50 mM Tris, 1.5 mM EDTA, pH 7.4, 5 mM DTT, 150 mM KCl) with 0.1% Chaps detergent. The receptor protein and ligand concentration was optimized such that no more than 20% of the added radiolabeled ligand was bound to the receptor.
# Radiolabeled and unlabeled ligands were added to 100 mcl of the diluted protein at a final ethanol concentration of ≦10%, mixed and incubated overnight on ice to reach binding equilibrium. The following day, 100 mcl of hydroxylapatite slurry (50%) was added to each tube and mixed at 10-minute intervals for 30 minutes. The hydroxylapaptite was collected by centrifugation and then washed three times with Tris-EDTA buffer (50 mM Tris, 1.5 mM EDTA, pH 7.4) containing 0.5% Titron X-100. After the final wash, the pellets were transferred to scintillation vials containing 4 mL of Biosafe II scintillation cocktail, mixed and placed in a scintillation counter. Total binding was determined from the tubes containing only radiolabeled ligand.
# [5] = system: 24-hydroxylase (24OHase) gene promoter in ROS 17/2.8 (bone) cells; assay: In vitro transcription assay, antagonism of 1,25(OH)2D3 (24OHase promoter-luciferase); type: cell-based; conditions: combination with 1,25(OH)2D3 in the same well; FIGS. 3-5
# Method: Transcription activity was measured in ROS 17/2.8 (bone) cells that were stably transfected with a 24-hydroxylase (24OHase) gene promoter upstream of a luciferase reporter gene (Arbour et al., 1998). Cells were given a range of doses. Sixteen hours after dosing the cells were harvested and luciferase activities were measured using a luminometer. RLU=relative luciferase units.
# Antagonism was tested by adding a combination of 1,25(OH)2D3 and the compound in the same well keeping the final ethanol concentration the same.
"binding to the vitamin D receptor relative to 1α,25-dihydroxyvitamin D3 [4]",Compound,"activity in inducing differentiation of HL-60 cells relative to 1,25-(OH)2D3 [1]",calcemic activity measured by bone calcium mobilization [2],intestinal calcium transport [3],"antagonistic activity when administered along with 1α,25-dihydroxyvitamin D3 (transcription) [5]"
less active,"C=C1C[C@@H](C[C@@H](C)C2CC[C@H]3/C(=C/C=C4C[C@@H](O)C(=C)[C@H](O)C4)CCC[C@]23C)OC1=O (stereo partly drawn) [GC-3, 2-methylene-19-nor-(23R)-25-dehydro-1α-hydroxyvitamin D3-26,23-lactone]","less activity than 1,25-(OH)2D3",no calcemic activity,retain the ability to elevate intestinal calcium transport,shows antagonistic activity
less active,"C=C1C[C@H](C[C@@H](C)C2CC[C@H]3/C(=C/C=C4C[C@@H](O)C(=C)[C@H](O)C4)CCC[C@]23C)OC1=O (stereo partly drawn) [HLV, 2-methylene-19-nor-(23S)-25-dehydro-1α-hydroxyvitamin D3-26,23-lactone]","less activity than 1,25-(OH)2D3",no calcemic activity,retain the ability to elevate intestinal calcium transport,antagonistic activity to an even greater extent
